Test results reported in patent US10695302B2, “Treatments for attention and cognitive disorders, and for dementia associated with a neurodegenerative disorder” (priority 2013, dated 2020).

Key:
[1] = tested on: male Sprague-Dawley rats; assay: cross maze task; assay type: in vivo, rat
From the text: The experimental design for cross maze task was adapted from Stefani et al, 2003, Behav. Neurosci. 117(4):728-37 (FIG. 7). Ten food-restricted male Sprague-Dawley rats were acclimated to a cross maze whose arms differed by color (red vs blue) or texture (smooth vs rough). A food reward was placed in a food well located at the end of the arm.
Rats were trained to form a mental set by associating a food reward with one feature of one dimension. Rats were subsequently tested on their ability to predict the food reward based on one feature of the alternative dimension.
0.9% saline (1 mg/kg), raclopride (0.05 mg/kg) or SK609 (4 mg/kg) were administered (IP) 30 prior to the experiment, followed by 0.9% saline (1 mg/kg) 15 min prior to beginning the task. Animals were tested to criterion performance of 8 consecutive correct trials.

[2] = tested on: male Sprague-Dawley rats; assay: set-shifting task; assay type: in vivo, rat; details: IP, SK609 4.0 mg/kg or raclopride 0.05 mg/kg, versus saline
From the text: Sixteen food-restricted male Sprague-Dawley rats were trained to discriminate between a pair of small ceramic pots in order to retrieve a food reward buried within one of the pots. A pair of pots differed from each other along three possible dimensions: scent, digging medium, or material covering the outer surface of the pot.
Simple discriminations (SD) were made between pots differing from each other along one dimension. Compound Discriminations (CD) were made between pots differing along two dimensions. Intra-dimensional Shifts (IDS) were changes made within a previously tested dimension. Extra-Dimensional Shifts (EDS) were changes made to a previously untested dimension.
Animals were tested on their ability to form an attentional set by attending to the dimension that predicts the food reward. Animals were then tested on their ability to make an IDS, EDS, or reversal by responding only to the new salient dimension while suppressing the urge to respond to the previously salient stimulus.
0.9% saline (1 mg/kg), raclopride (0.05 mg/kg) or SK609 (4 mg/kg) were administered (IP) 30 prior to the experiment followed by 0.9% saline (1 mg/kg) 15 min prior to beginning the task. Animals were tested to criterion performance of 5 consecutive correct trials.

[3] = biological target: hDAT (Homo sapiens, UniProt Q01959); assay: effect on efflux of monoamine neurotransmitters, hDAT; assay type: cell-based
Sequence of hDAT (Q01959 whole entry): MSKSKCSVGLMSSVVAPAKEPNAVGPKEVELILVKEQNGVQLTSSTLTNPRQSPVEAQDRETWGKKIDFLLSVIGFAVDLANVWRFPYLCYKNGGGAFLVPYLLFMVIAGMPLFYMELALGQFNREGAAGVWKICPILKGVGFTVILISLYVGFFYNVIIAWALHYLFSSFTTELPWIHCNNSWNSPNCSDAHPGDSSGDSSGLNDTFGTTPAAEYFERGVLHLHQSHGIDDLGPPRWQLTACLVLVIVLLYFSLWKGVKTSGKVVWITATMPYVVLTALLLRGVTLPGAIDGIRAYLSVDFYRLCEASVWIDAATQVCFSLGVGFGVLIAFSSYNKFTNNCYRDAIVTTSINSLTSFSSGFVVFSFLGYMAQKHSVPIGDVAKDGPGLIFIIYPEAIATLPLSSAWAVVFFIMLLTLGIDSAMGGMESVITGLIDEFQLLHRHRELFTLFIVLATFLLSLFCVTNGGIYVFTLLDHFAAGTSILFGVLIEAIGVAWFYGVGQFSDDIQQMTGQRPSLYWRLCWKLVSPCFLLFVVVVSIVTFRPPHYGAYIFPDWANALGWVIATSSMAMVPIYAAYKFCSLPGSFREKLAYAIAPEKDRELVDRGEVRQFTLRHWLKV

[4] = tested on: male Sprague-Dawley rats; assay: sustained attention task (vigilance index); assay type: in vivo, rat
Procedure: The vigilance index (VI) of rats treated with SK609 was evaluated using the following protocol. Substantively, eight water restricted male Sprague-Dawley rats were trained in an operant task of sustained attention (McGaughy & Sarter, 1995, Psychopharm. 117:340-357). In response to both signal and non-signal conditions, a water reward was given for correct responses as a positive reinforcer. Rats were first trained by successive approximation to establish lever pressing behavior. Subjects were then trained to criterion performance on the sustained attention task with a 1,000 msec light stimulus duration and then transferred to 15 msec stimulus duration.
Performance was determined based on a rat's calculated VI: VI=(h−f)/[2*(h+f)−(h+f)^2], wherein h (relative hits)=# Hits/(# Hits+# Misses), and f ([…])=# False Alarms/(# False Alarms+# Correct Rejections).
VI of 1 indicates complete vigilance; VI of 0.35 indicates above chance vigilance; and VI of −1 indicates no vigilance.
Testing occurred over a 45 min session of randomly presented signal and non-signal trials. Criterion performance required a rat to achieve greater than 59% signal and non-signal trials, a VI greater than 0.35 and less than 25% omissions per day for three consecutive days. Once subjects stabilized at a baseline, their responses are no longer considered random.
SK609 was administered intraperitoneally (IP) at various doses 15 min prior to beginning the task. Prazosin was administered IP 30 min prior, and SK609 15 min prior to beginning the task. Data are presented as difference scores for VI from an average baseline (FIGS. 4-6).
The operant conditioning chambers contained a house light (2.8 W), a stimulus light (2.8 W), a pair of retractable levers and water reward apparatus. Eight water-restricted male Sprague-Dawley rats were trained in an operant task of sustained attention. In response to both signal and non-signal conditions, a water reward was given for correct responses as a positive reinforcer.
Rats were first trained by successive approximation to establish lever pressing behavior. Subsequently, the rats were trained to criterion performance. Criterion performance required a rat to achieve greater than 59% signal and non-signal trials, a VI greater than 0.35 and less than 25% omissions per day for three consecutive days.
Prazosin (0.25 mg/kg) and raclopride (0.05 mg/kg) were administered (IP) 30 min prior to the experiment followed by either SK609 (4.0 mg/kg) or MPH (2.0 mg/kg) 15 min prior to beginning the task. Performance was determined based on a rat's calculated Vigilance Index (VI). Data are presented as difference scores for VI from an average baseline.

[5] = biological target: hNET (Homo sapiens, UniProt P23975); assay: effect on efflux of monoamine neurotransmitters, hNET; assay type: cell-based
Sequence of hNET (P23975 whole entry): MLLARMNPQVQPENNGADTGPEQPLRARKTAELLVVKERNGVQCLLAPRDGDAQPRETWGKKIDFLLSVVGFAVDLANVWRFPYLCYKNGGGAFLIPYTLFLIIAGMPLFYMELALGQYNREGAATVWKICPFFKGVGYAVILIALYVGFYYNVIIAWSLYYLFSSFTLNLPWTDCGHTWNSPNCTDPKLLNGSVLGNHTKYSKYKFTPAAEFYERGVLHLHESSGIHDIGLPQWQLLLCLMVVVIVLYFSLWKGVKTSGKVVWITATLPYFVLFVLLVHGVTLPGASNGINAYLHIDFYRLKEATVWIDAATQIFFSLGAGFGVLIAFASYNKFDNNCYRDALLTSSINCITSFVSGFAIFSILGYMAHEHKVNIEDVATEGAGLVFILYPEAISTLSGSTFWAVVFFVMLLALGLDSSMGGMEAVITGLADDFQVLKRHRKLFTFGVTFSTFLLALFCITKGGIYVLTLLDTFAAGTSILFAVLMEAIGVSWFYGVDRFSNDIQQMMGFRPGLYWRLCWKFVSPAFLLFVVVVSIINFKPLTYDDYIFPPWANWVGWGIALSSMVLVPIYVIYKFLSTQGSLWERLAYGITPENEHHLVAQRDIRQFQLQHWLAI

[6] = biological target: hSERT (Homo sapiens, UniProt P31645); assay: effect on efflux of monoamine neurotransmitters, hSERT; assay type: cell-based
Sequence of hSERT (P31645 whole entry): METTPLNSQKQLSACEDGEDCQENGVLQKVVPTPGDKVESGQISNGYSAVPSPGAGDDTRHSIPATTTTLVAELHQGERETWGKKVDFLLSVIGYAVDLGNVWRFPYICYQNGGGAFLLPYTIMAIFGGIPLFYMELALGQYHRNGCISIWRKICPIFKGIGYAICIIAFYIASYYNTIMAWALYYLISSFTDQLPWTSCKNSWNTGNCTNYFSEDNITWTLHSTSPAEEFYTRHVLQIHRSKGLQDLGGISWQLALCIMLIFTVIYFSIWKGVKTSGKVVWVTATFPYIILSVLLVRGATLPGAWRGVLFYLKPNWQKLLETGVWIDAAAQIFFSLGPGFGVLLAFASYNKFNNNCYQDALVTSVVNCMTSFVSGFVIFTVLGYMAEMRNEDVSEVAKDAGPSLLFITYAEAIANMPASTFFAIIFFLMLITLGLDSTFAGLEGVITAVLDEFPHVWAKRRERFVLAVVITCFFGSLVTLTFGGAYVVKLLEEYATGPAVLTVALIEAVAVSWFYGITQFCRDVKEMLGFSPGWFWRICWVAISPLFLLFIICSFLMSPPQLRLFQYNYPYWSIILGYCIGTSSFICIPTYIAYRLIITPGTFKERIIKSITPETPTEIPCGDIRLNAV

[7] = efflux measured as percentage of vehicle, FIG. 1
[8] = panel of monoamine neurotransmitter transporters
[9] = SK609 IP 4.0 mg/kg, prazosin IP 0.25 mg/kg or raclopride IP 0.05 mg/kg 30 min prior
[10] = SK609 peak dose 8 mg/kg, FIG. 4

SMILES	cross maze overall performance in 8 trial increments over 80 trials ([1]; SK609 IP 4.0 mg/kg vs saline, p=0.008, FIG. 10B)	cross maze performance (number of trials to reach criterion) ([1]; SK609 IP 4.0 mg/kg, n=5 vs saline n=2, p=0.027, FIG. 10A)	performance in EDS, IDS, CD of set-shifting task [2]	IC50 [3, 7] [µM]	effect on dopamine transporters (DAT) [3, 8]	peak dose for vigilance index (VI) performance ([4]; IP, doses 2, 4, 8, 10 and 20 mg/kg, inverted-U dose response) [mg/kg]	% omissions ([4]; SK609 8 mg/kg IP)	sustained attention (VI difference from baseline) ([4]; SK609 8 mg/kg IP, 15 min prior to task)	% omissions ([4]; SK609 high doses IP)	IC50 [5, 7] [nM]	effect on NET [5, 8]	IC50 [6, 7] [µM]	effect on serotonin transporters (SERT) [6, 8]	effect of antagonist pre-treatment on MPH VI performance ([4]; MPH IP 2.0 mg/kg, prazosin IP 0.25 mg/kg, n=8)	effect of antagonist pre-treatment on SK609 VI performance [4, 9]	effect of antagonist pre-treatment on SK609 VI performance [4, 10]
CC(N)CCc1ccccc1Cl (stereo not shown) [SK609, 4-(2-chlorophenyl)-butan-2-amine]	improved performance faster and maintained improvements better than saline	improved performance relative to saline	did not differ significantly from saline	8.5	no effect	8	without increasing omissions	enhanced sustained attention	increased the % of omissions	290	selective NET antagonism	35.9	no effect	–	–	–
COc1cc2nc(N3CCN(C(=O)c4ccco4)CC3)nc(N)c2cc1OC [prazosin, 2-[4-(2-furoyl)piperazin-1-yl]-6,7-dimethoxyquinazolin-4-amine, reference compound]	–	–	–	–	–	–	–	–	–	–	–	–	–	blocked the effects	blocked the effects	completely abrogated
CCN1CCC[C@H]1CNC(=O)c1c(O)c(Cl)cc(Cl)c1OC [raclopride, 3,5-dichloro-N-{[(2S)-1-ethylpyrrolidin-2-yl]methyl}-2-hydroxy-6-methoxybenzamide, reference compound]	–	–	impairments in performance relative to controls	–	–	–	–	–	–	–	–	–	–	–	blocked the effects	moderately
